Assay results reported in ChEMBL document CHEMBL1152560, “Substituted 2-arylbenzothiazoles as kinase inhibitors: hit-to-lead optimization” (Bioorg Med Chem, 2009).

Experiments:
[1] = target: LIM domain kinase 1 (Homo sapiens) (UniProt P53667); experiment: Residual activity of LIMK1 at 1 uM by microplate scintillation counting
[2] = target: Fibroblast growth factor receptor 4 (Homo sapiens) (UniProt P22455); experiment: Residual activity of FGFR4 at 1 uM by microplate scintillation counting
[3] = target: Wee1-like protein kinase (Homo sapiens) (UniProt P30291); experiment: Residual activity of WEE1 at 1 uM by microplate scintillation counting
[4] = target: T1, NUAK family SNF1-like kinase 1 (Homo sapiens) (UniProt O60285); experiment: Residual activity of ARK5 at 0.1 uM by microplate scintillation counting
T1 sequence (whole entry): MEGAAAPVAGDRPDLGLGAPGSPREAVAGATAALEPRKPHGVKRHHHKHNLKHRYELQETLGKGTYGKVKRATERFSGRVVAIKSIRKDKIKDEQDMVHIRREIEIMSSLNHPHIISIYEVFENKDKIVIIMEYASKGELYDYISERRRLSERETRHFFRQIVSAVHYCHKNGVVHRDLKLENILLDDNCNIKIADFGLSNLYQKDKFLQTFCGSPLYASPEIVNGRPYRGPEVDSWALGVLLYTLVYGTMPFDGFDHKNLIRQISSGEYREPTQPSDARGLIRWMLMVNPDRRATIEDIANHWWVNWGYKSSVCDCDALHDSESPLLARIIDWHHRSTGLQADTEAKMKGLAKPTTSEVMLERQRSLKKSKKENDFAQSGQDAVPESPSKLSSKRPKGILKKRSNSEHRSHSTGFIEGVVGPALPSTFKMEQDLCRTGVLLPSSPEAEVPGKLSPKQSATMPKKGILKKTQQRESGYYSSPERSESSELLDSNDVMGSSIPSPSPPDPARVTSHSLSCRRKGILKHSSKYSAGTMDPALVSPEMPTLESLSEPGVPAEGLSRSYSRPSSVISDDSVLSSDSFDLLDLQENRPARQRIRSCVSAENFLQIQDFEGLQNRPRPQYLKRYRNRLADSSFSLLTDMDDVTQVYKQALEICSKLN

[5] = target: T2, Dual specificity protein kinase TTK (Homo sapiens) (UniProt P33981); experiment: Residual activity of TTK at 1 uM by microplate scintillation counting
T2 sequence (whole entry): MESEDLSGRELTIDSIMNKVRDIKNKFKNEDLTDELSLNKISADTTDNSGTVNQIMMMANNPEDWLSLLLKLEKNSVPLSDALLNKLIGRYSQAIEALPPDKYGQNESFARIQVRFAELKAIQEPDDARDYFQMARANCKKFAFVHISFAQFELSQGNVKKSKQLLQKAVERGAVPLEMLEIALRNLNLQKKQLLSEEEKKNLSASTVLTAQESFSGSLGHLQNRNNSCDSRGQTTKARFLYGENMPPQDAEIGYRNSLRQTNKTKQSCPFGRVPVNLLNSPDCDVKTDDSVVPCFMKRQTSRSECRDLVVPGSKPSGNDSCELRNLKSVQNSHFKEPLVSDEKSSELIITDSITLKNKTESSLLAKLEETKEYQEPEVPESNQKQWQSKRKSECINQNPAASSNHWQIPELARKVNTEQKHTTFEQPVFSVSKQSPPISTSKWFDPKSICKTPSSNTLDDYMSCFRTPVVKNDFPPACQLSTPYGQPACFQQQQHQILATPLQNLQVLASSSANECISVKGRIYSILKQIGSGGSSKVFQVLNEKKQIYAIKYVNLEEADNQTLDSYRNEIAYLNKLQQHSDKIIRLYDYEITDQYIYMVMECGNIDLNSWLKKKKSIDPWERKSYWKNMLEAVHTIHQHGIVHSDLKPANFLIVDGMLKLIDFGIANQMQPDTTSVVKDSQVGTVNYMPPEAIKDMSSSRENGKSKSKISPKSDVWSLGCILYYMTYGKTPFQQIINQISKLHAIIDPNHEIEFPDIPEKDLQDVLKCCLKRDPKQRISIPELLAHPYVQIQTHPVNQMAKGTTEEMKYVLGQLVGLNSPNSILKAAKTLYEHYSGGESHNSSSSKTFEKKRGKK

[6] = target: Tyrosine-protein kinase FRK (Homo sapiens) (UniProt P42685); experiment: Residual activity of FRK at 10 uM by microplate scintillation counting
[7] = target: Angiopoietin-1 receptor (Homo sapiens, UniProt Q02763); experiment: Inhibition of TIE2 by microplate scintillation counting
[8] = target: CDK8/Cyclin C (Homo sapiens) (UniProt P49336+P24863); experiment: Residual activity of CDK8/Cyclin C at 0.1 uM by microplate scintillation counting; format: protein-complex assay
[9] = target: BDNF/NT-3 growth factors receptor (Homo sapiens) (UniProt Q16620); experiment: Residual activity of TRK-B at 1 uM by microplate scintillation counting
[10] = target: Tyrosine-protein kinase Lyn (Homo sapiens) (UniProt P07948); experiment: Residual activity of LYN at 1 uM by microplate scintillation counting
[11] = target: Protein kinase C gamma type (Homo sapiens) (UniProt P05129); experiment: Residual activity of PKCgamma at 0.1 uM by microplate scintillation counting
[12] = target: T3, Serine/threonine-protein kinase Nek3 (Homo sapiens) (UniProt P51956); experiment: Residual activity of NEK3 at 1 uM by microplate scintillation counting
T3 sequence (whole entry): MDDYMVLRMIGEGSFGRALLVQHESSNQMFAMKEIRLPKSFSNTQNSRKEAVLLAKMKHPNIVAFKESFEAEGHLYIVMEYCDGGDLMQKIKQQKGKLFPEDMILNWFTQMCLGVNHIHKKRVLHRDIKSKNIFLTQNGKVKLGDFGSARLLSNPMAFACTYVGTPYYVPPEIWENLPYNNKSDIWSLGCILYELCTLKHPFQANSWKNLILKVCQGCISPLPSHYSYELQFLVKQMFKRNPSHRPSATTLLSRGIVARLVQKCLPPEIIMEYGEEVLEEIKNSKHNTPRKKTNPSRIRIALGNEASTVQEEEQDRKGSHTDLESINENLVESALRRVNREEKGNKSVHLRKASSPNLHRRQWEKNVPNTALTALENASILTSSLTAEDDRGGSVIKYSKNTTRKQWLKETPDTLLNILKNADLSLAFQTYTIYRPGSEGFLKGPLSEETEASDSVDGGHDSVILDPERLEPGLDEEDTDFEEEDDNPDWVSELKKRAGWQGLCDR

[13] = target: Serine/threonine-protein kinase 26 (Homo sapiens) (UniProt Q9P289); experiment: Residual activity of MST4 at 10 uM by microplate scintillation counting
[14] = target: Platelet-derived growth factor receptor alpha (Homo sapiens) (UniProt P16234); experiment: Residual activity of PDGFRalpha at 0.1 uM by microplate scintillation counting
[15] = target: Calcium/calmodulin-dependent protein kinase type II subunit alpha (Homo sapiens) (UniProt Q9UQM7); experiment: Residual activity of CAMK2A at 1 uM by microplate scintillation counting
[16] = target: Vascular endothelial growth factor receptor 2 (Homo sapiens, UniProt P35968); experiment: Residual activity of VEGFR2 at 0.1 uM by microplate scintillation counting

Fibroblast growth factor receptor 4 (Homo sapiens), sequence (P22455 22-802 limits assumed): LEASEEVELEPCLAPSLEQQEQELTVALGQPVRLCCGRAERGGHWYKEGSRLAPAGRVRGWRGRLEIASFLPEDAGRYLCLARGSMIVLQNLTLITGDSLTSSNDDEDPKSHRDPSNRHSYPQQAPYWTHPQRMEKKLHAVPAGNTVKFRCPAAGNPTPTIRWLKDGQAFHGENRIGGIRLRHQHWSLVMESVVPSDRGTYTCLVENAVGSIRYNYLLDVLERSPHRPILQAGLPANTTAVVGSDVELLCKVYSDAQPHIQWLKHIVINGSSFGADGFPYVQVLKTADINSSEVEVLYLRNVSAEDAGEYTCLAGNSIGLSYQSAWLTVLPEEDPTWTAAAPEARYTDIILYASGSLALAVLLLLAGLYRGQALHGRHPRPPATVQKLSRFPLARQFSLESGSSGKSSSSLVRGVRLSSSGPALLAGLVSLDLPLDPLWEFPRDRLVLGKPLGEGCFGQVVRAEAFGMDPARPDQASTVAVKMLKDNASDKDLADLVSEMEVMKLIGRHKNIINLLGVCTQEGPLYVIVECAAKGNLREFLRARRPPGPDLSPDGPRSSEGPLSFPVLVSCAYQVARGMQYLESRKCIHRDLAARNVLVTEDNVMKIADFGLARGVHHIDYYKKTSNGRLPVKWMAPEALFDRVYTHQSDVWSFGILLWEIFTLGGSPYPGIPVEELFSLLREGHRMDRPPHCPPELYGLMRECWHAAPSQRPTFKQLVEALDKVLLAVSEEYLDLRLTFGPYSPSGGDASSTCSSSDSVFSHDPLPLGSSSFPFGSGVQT
Angiopoietin-1 receptor, sequence (Q02763 whole entry): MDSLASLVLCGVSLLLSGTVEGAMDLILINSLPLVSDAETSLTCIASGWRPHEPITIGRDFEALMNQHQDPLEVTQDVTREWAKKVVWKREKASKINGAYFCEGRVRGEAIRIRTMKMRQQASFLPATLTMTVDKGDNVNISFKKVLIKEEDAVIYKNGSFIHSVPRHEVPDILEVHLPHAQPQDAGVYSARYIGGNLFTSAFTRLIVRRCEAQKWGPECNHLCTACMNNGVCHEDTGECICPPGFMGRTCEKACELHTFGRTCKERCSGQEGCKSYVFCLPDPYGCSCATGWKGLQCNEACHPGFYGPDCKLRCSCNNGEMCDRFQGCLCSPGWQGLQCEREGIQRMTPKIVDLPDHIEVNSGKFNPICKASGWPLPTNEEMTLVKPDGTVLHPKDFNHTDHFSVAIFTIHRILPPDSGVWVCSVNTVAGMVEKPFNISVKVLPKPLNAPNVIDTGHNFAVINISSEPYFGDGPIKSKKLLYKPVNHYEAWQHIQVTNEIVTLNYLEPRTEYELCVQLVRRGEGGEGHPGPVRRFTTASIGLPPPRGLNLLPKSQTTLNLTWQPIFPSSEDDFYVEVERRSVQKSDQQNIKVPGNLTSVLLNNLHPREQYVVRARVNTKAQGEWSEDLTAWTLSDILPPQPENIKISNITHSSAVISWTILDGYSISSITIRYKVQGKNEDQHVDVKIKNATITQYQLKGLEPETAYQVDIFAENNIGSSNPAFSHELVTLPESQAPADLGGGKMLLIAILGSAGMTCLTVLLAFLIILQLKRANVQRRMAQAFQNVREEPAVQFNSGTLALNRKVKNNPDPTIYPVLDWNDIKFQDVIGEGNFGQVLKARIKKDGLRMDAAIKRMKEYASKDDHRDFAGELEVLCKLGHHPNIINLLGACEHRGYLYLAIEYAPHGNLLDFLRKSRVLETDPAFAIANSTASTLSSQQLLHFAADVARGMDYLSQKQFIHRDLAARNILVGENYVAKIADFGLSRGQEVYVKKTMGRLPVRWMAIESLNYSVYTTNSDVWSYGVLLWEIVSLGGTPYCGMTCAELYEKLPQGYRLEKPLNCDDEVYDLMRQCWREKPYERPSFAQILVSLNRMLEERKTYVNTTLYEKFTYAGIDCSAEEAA
Platelet-derived growth factor receptor alpha (Homo sapiens), sequence (P16234 whole entry): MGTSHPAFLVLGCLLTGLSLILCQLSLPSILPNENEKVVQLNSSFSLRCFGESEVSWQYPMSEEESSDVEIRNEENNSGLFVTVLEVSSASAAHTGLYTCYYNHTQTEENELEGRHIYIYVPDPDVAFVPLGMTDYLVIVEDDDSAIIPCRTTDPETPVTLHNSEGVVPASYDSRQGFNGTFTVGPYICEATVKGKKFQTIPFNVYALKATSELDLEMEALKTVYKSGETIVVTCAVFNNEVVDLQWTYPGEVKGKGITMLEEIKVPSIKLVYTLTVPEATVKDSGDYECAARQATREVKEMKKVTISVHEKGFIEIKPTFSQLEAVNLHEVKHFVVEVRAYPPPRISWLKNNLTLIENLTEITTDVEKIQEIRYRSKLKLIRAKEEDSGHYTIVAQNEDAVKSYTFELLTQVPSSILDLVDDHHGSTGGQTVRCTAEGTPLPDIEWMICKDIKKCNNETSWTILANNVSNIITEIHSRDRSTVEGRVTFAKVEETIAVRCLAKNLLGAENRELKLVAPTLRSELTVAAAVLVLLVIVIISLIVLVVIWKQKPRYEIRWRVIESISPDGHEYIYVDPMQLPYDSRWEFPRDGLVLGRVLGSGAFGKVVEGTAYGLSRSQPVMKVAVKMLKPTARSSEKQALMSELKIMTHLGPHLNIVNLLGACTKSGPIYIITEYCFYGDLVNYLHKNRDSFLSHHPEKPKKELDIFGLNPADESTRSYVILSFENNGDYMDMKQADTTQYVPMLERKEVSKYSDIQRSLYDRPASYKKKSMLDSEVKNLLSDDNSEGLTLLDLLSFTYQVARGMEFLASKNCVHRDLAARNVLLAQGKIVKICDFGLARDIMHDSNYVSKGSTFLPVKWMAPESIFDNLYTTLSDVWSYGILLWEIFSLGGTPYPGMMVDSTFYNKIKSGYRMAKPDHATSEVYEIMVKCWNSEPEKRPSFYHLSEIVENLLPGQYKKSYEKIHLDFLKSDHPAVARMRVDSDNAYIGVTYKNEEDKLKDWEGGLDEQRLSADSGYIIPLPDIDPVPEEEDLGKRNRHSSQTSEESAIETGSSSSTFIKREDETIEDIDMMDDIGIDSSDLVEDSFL
Wee1-like protein kinase (Homo sapiens), sequence (P30291 whole entry, looked up): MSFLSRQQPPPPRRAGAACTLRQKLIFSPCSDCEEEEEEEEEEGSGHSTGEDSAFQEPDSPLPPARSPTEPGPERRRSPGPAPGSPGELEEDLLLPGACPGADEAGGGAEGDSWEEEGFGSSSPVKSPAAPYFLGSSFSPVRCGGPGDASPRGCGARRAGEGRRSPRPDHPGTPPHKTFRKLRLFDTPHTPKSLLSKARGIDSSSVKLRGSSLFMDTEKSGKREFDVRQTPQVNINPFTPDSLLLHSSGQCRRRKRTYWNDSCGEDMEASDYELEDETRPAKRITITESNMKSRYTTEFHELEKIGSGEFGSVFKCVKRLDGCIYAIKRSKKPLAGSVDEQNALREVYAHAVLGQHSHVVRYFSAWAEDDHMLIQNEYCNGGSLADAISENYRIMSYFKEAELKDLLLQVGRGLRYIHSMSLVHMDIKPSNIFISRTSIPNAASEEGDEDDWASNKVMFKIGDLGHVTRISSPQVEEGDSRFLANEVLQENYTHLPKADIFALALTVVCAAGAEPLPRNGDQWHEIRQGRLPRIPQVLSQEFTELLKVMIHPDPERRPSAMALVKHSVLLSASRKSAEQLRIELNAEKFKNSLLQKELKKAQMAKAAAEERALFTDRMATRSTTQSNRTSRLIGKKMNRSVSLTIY
Tyrosine-protein kinase Lyn (Homo sapiens), sequence (P07948 2-512 limits assumed): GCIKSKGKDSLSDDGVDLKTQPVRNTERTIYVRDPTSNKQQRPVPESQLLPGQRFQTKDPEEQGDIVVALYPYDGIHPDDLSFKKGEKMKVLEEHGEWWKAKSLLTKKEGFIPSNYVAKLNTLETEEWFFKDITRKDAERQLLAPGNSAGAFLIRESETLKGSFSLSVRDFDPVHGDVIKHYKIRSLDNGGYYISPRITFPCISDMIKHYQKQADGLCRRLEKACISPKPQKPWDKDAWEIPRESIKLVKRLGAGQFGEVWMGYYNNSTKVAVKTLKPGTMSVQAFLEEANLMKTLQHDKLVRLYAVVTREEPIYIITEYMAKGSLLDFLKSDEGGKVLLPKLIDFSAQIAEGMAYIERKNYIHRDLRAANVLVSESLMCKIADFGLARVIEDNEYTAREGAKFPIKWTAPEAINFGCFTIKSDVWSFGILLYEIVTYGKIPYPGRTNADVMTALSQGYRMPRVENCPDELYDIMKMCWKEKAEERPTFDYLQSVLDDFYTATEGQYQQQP

Row | residual activity [1] [%] | residual activity [2] [%] | residual activity [3] [%] | residual activity [4] [%] | residual activity [5] [%] | residual activity [6] [%] | IC50 [7] [nM] | residual activity [8] [%] | residual activity [9] [%] | residual activity [10] [%] | residual activity [11] [%] | residual activity [12] [%] | residual activity [13] [%] | residual activity [14] [%] | residual activity [15] [%] | residual activity [16] [%] | SMILES
1 | 82 | 137 | 84 | 83 | 85 | 71 | 72 | 94 | 104 | 119 | 99 | 110 | 85 | 86 | 81 | 73 | COc1cc2c(Oc3ccc(-c4nc5ccccc5s4)cc3)ncnc2cc1OCCCN1CCCC1
2 | 83 | 121 | 99 | 98 | 101 | 61 | 44 | 87 | 93 | 104 | 120 | 102 | 88 | 86 | 69 | 65 | COc1cc2c(Oc3ccc(-c4nc5ccccc5s4)cc3)ncnc2cc1OCCCN1CCN(C)CC1
3 | 81 | 130 | 101 | 94 | 105 | 24 | 88 | 79 | 95 | 93 | 101 | 103 | 76 | 94 | 83 | 73 | COc1cc2c(Oc3ccc(-c4nc5ccccc5s4)cc3F)ncnc2cc1OCCCN1CCN(C)CC1
